Data as given in article PMC3355380, “Back to the Future: Lessons Learned in Modern Target-based and Whole-Cell Lead Optimization of Antimalarials” (Current Topics in Medicinal Chemistry, 2012).
Values after ≈ are worked out from the molar mass of the structure shown. Like-named read-outs stand apart in the source and are kept apart here. Blank lines part the entries; values can stand above or below the molecule they belong to.

Legend:
[1] = tested on: P. falciparum 3D7; assay: P. falciparum 3D7 proliferation assay; assay type: cell-based, Plasmodium falciparum; conditions: for EC50: Plasmodium falciparum, 3D7
Description: (§1) We screened both our in-house compound collection (~2.3M compounds) and natural products library (12,000 compounds) using a cell based Plasmodium falciparum proliferation assay. This screen provided data on a large number of chemically diverse anti-malarial compounds. These nearly 5700 hits have been deposited into the public EBI database by GNF/Novartis. A number of these hits originated from kinase-directed libraries and many of which are pan-kinase inhibitors. De-convoluting and eliminating inherent kinase activity with many of these scaffolds while maintaining cellular potency was the first step in the hit-to-lead phase for these particular chemotypes. What follows is a summary of the chemical optimization of some kinase-like and non-kinase scaffolds which came out of the whole-cell screening effort.

[2] = tested on: 190 kinases; assay: human kinase profile on 190 kinases, biochemical and cellular formats; conditions: biochemical and cellular assay formats
[3] = tested on: fifteen P. falciparum strains; assay: panel of fifteen P. falciparum wild type and drug resistant strains; assay type: cell-based; conditions: Plasmodium falciparum, read-out: in vitro EC50s across fifteen P. falciparum strains
[4] = tested on: P. falciparum W2; assay: P. falciparum W2 proliferation assay; assay type: cell-based; conditions: Plasmodium falciparum, imidazolopiperazine hits, mean of two experiments
Description: as §1

[5] = tested on: Huh7; assay: cytotoxicity on Huh7 cells; conditions: mean of two experiments
[6] = tested on: Plasmodium berghei; assay: P. berghei murine model; assay type: in vivo; conditions: for Activity (%): average parasitemia reduction; for Survival: untreated mice 6-7 days; for parasitemia reduction: at all dosing regimens
[7] = tested on: chloroquine-resistant K1 P. falciparum strain; set-up: method as in PMID 20813948; conditions: Fig. 4; cited from earlier work
[8] = tested on: P. falciparum NF54; set-up: method as in PMID 20813948; conditions: Fig. 4; cited from earlier work
[9] = in vivo PK in mouse
[10] = PAMPA permeability assay; assay type: in vitro ADME
Description: Access to these types of in vitro assays, both within industry and academia, can greatly accelerate the drug discovery process.

[11] = aqueous solubility; assay type: physicochemical; conditions: aqueous medium, pH 6.8, aqueous buffer
[12] = metabolic stability in human liver microsomes; assay type: in vitro ADME; conditions: for half-life: human, liver microsomes, read-out: Liver Microsomes t1/2 (min), Human; for Liver Microsomes CLint, Human: intrinsic clearance, high clearance corresponds to low stability
[13] = metabolic stability in mouse liver microsomes; assay type: in vitro ADME; conditions: for Liver Microsomes CLint, Mouse: intrinsic clearance, high clearance corresponds to low stability; for half-life: mouse, liver microsomes, read-out: Liver Microsomes t1/2 (min), Mouse
[14] = tested on: P. falciparum NF54; assay: P. falciparum NF54 in vitro potency; assay type: cell-based; conditions: Plasmodium falciparum, spiroindolones, Tables 8 and 9
[15] = tested on: Plasmodium berghei; set-up: method as in earlier work; conditions: single oral dose at 100 mg/kg; cited from earlier work
[16] = in vivo; conditions: mouse, po
[17] = molecular target: QM-PfDHFR (quadruple mutant PfDHFR); set-up: method as in PMID 20350951; conditions: cited from earlier work
[18] = molecular target: WT-PfDHFR (wild type PfDHFR); set-up: method as in PMID 20350951; conditions: cited from earlier work
[19] = imidazolopiperazine hits, mean of two experiments, read-out: P. falciparum 3D7 EC50
[20] = 1 x 30 mg/kg, 7% Tween 80/3% ethanol (20: 75% PEG300/25%D5W)

EC50 ([1]; imidazolopyrimidines, Fig. 2, read-out: 3D7 EC50): 34 nM
human kinase profile on 190 kinases [2]: clean human kinase profile
EC50 [3]: < 140 nM
Structure (SMILES): CN1CCN(c2nc(Nc3ccc(OC(F)(F)F)cc3)cc(Nc3nccn3-c3cccc(C(F)(F)F)c3)n2)CC1 [Compound 17]
improvement in potency over the hit compound ([1]; 17 versus 16): greater than 10 fold

EC50 [1, 19]: 235 nM
EC50 [4]: 271 nM
Structure (SMILES): NC(Cc1ccccc1)C(=O)N1CCn2c(nc(-c3ccccc3)c2Nc2ccc3c(c2)OCO3)C1 (stereo not shown) [Compound 18b]
Cytotoxicity (µM) Huh7 [5]: > 10 µM

EC50 [1, 19]: 116 nM
EC50 [4]: 119 nM
Structure (SMILES): CC(C)CC(N)C(=O)N1CCn2c(nc(-c3ccccc3)c2Nc2ccc3c(c2)OCO3)C1 (stereo not shown) [Compound 18c]
Cytotoxicity (µM) Huh7 [5]: > 10 µM

Structure (SMILES): CC(C)(N)C(=O)N1CCn2c(nc(-c3ccc(F)cc3)c2Nc2ccc(F)cc2)C1 [Compound 19]
Activity (%) [6, 20]: 99.3%
Survival ([6]; 1 x 30 mg/kg): 7.7 days
Activity (%) ([6]; 1 x 100 mg/kg): 99.6%
Survival ([6]; 1 x 100 mg/kg): 13.3 days
Activity (%) ([6]; 3 x 30 mg/kg): 99.9%
Survival ([6]; 3 x 30 mg/kg): 14.0 days
parasitemia reduction [6]: more than 99%

Structure (SMILES): CC(C)(N)C(=O)N1CCn2c(nc(-c3ccc(F)cc3)c2Nc2ccc(F)c(Cl)c2)C1 [Compound 20]
Activity (%) [6, 20]: 99.4%
Survival ([6]; 1 x 30 mg/kg): 7.7 days
Activity (%) ([6]; 1 x 100 mg/kg): 99.4%
Survival ([6]; 1 x 100 mg/kg): 17.0 days
Activity (%) ([6]; 3 x 30 mg/kg): 99.8%
Survival ([6]; 3 x 30 mg/kg): 17.7 days
parasitemia reduction [6]: more than 99%

Structure (SMILES): CC1CCc2c([nH]c3ccccc23)C2(N1)C(=O)Nc1ccc(Br)cc12 (stereo not shown) [Compound 21]
EC50 [7]: 80 nM
EC50 [8]: 90 nM
Cmax ([9]; in vivo, po, 25 mg/kg): 1400 nM
bioavailability ([9]; in vivo, po, 25 mg/kg): 59%
oral T1/2 ([9]; single 25 mg/kg oral dose): four
mouse survival ([6]; single oral dose of 100 mg/kg): slight prolongation in mouse survival over control
reduction in parasitemia ([6]; single oral dose of 100 mg/kg): 96%
permeability in a PAMPA assay [10]: 99%
solubility [11]: 75 µM (≈ 29.7 µg/mL)

Structure (SMILES): C[C@H]1CCc2c([nH]c3ccccc23)[C@@]2(N1)C(=O)Nc1ccc(Br)cc12 [Compound 22]
EC50 [7]: 16 nM
EC50 [8]: 10 nM

Structure (SMILES): C[C@@H]1CCc2c([nH]c3ccccc23)[C@]2(N1)C(=O)Nc1ccc(Br)cc12 [Compound 23]
EC50 [7]: > 3000 nM
EC50 [8]: > 5000 nM

half-life [12]: 10 min
Liver Microsomes CLint, Human [12]: Med
Liver Microsomes CLint, Mouse [13]: High
half-life [13]: 4.2 min
EC50 [14]: 3.4 nM
Structure (SMILES): C[C@H]1Cc2c([nH]c3ccc(F)cc23)[C@@]2(N1)C(=O)Nc1ccc(Cl)cc12 [Compound 27]

half-life [12]: 53.3 min
Liver Microsomes CLint, Human [12]: Low
Liver Microsomes CLint, Mouse [13]: Low
half-life [13]: 53 min
EC50 [14]: 3.5 nM
Structure (SMILES): C[C@H]1Cc2c([nH]c3cc(F)ccc23)[C@@]2(N1)C(=O)Nc1ccc(Cl)cc12 [Compound 28]

Structure (SMILES): C[C@H]1Cc2c([nH]c3cc(F)c(F)cc23)[C@@]2(N1)C(=O)Nc1ccc(Cl)cc12 [Compound 29]
half-life [12]: 56.4 min
Liver Microsomes CLint, Human [12]: Low
Liver Microsomes CLint, Mouse [13]: Low
half-life [13]: 49.1 min
EC50 [14]: 0.2 nM

Structure (SMILES): C[C@H]1Cc2c([nH]c3cc(Cl)c(F)cc23)[C@@]2(N1)C(=O)Nc1ccc(Cl)cc12 [Compound 30]
half-life [12]: 76 min
Liver Microsomes CLint, Human [12]: Low
Liver Microsomes CLint, Mouse [13]: Low
half-life [13]: 49 min
EC50 [14]: 0.9 nM
clearance of P. berghei infection [15]: completely cleared a P. berghei infection in all treated mice
bioavailability [16]: 100%
half-life ([9]; in vivo, po): 600 min

Structure (SMILES): CC1(C)N=C(N)N=C(N)N1c1ccc(Cl)cc1 [Cycloguanil]
Ki [17]: 454 ± 38 nM
Ki [18]: 1.51 ± 0.1 nM

Structure (SMILES): CCc1nc(N)nc(N)c1-c1ccc(Cl)cc1 [Pyrimethamine]
Ki [17]: 385 ± 163 nM
Ki [18]: 0.59 ± 0.05 nM
